Laboratory results from ChEMBL document CHEMBL4411261, “Down-Regulation of the Androgen Receptor by G-Quadruplex Ligands Sensitizes Castration-Resistant Prostate Cancer Cells to Enzalutamide” (J Med Chem, 2018).
Activity calls are given as the source filed them. The calls are words filed in the database; no cut-off is given here.

How the values were obtained:
Quadruplex DNA = test: Stabilization of AR G-quadruplex oligonucleotide in human 22Rv1 cells assessed as reduction in AKT1 phosphorylation at S473 residues at IC50 after 48 hrs by Western immunoblot assay; assay type: cell-based
PC-3 = test: Synergistic cytotoxicity against human PC3 cells assessed as combination index for reduction in cell viability measured at ED75 Enzalutamide at 0.001 to 0.1 uM after 72 hrs by MTS assay based Chou and Talay's plot analysis

SMILES: CN(C)CCCn1c(=O)c2ccc3c(=O)n(CCCN(C)C)c(=O)c4c5[nH]c6ccccc6[nH]c5c(c1=O)c2c34.Cl.Cl
- Activity (Quadruplex DNA): Active
- CI (PC-3): >1
